Measurements: patent US20130131126A1, “DERIVATIVES OF 1,4-DIHYDROPYRIDINE POSSESSING ANTIVIRAL EFFICACY” (JSC Grindeks, priority 2010, published 2013)

These compounds were tested on influenza virus (H3N2) (assay: Antiviral efficacy against influenza virus on MDCK cell line in vitro). Conditions: MDCK cells infected with influenza virus (H3N2); compound present from 1 hour after infection until end of culture; over a wide concentration range.
Type: cell-based

How did the “antiviral efficacy against influenza” value turn out when `COC(=O)C1C(C(=O)OCC(=O)[O-])=C(C)NC(C)=C1C(=O)OCC(=O)[O-].[Na+].[Na+]` [disodium 2,6-dimethyl-1,4-dihydropyridine-4-methoxycarbonyl-3,5-bis-(carbonyloxyacetate)] was run?
Its value is “effective against influenza”.

How did the “antiviral efficacy against influenza” value turn out when `CCOC(=O)C1=C(C)NC(C)=C(C(=O)OCC(=O)[O-])C1.[Na+]` [sodium 2,6-dimethyl-3-ethoxycarbonyl-1,4-dihydropyridine-5-carbonyloxyacetate] was run?
The value was “effective against influenza”.

Which “antiviral efficacy against influenza” value does the source give for `COC(=O)C1=C(C)NC(C)=C(C(=O)OCC(=O)[O-])C1.[Na+]` [sodium 2,6-dimethyl-3-methoxycarbonyl-1,4-dihydropyridine-5-carbonyloxyacetate] here?
Its value is “effective against influenza”.
